Results: patent US5723115A, “Inhibition of adipose tissue development and obesity” (W. Alton Jones Cell Science Center, Inc., priority 1993, dated 1998)

How the values were obtained:
1246 cells = test: Differentiation of 1246 cells (G3PDH enzymatic activity); type: cell-based
Description: FIG. 11 is a graph showing the dose-related inhibition of adipocyte differentiation by prostaglandin F2α (PGF^2α). 1246 cells were incubated with the indicated dose of pGF^2α
FIG. 12 is a graph showing that indomethacin reverses the EGF-induced inhibition of adipocyte differentiation. 1246 cells were incubated in medium ("no"=control, 100% of activity) or in the presence of indicated concentrations of EGF, indomethacin ("Indo") or a mixture of EGF (E) at the indicated concentration and indomethacin (I) at 3 μM. As above, differentiation was assessed as G3PDH enzymatic activity.
Stimulation of PLA2 will result in the activation of the cyclooxygenase pathway, leading to generation of various prostaglandins, as is well-known in the art. One metabolite of this pathway, prostaglandin F2α (PGF2α), was tested for its ability to act as a mediator of the EGF effect and inhibit adipocyte differentiation.
If EGF inhibits adipocyte differentiation via the activation of PLA2 and cyclooxygenase, it would be expected that an inhibitor of cyclooxygenase would counteract the EGF effect.

[1] = tested on: newborn NBR rats (inguinal fat pads); test: Daily sc EGF injection of newborn NBR rats for 10 days: eyelid response, body, organ and inguinal fat pad measures; type: in vivo, rat
Description: New Zealand Brown (NBR) rats (Trudeau Institute, Saranac Lake, N.Y.) were mated in the animal facilities of the W. Alton Jones Cell Science Center. One day after delivery, litter size was adjusted to 6-8 pups/female according to the size and age of the females. No more than 8 pups/female were used. Mothers were fed ad libitum a regular laboratory diet and were allowed free access to water. Animals were housed in rooms in which the air flow, temperature and lights were controlled (12 h of light between 6 AM to 6 PM).
Mouse "receptor grade" EGF (Biomedical Technologies, Inc.) was used in all experiments. […] Beginning at 24 hrs after birth, rats were injected subcutaneously (sc) daily for 10 days with EGF dissolved in physiological saline at doses varying between 0.1 and 1.0 μg/g of body weight. The pups were weighed prior to each injection. Control animals were similarly handled and weighed, and were injected sc with an equivalent volume of physiological saline.
(§1) Inguinal fat pads, well developed in 10 day-old animals, can be easily dissected. Inguinal fat pads were excised, weighed and pooled. They were digested with collagenase using the method of Bjorntorp et al. (23), and duplicate aliquots were kept for measuring triglyceride content as described below. Digestion conditions minimized breakage of adipocytes during the incubation period (23). After digestion, the cell suspension was filtered through a 253 μm nylon mesh filter. Adipocytes were easily recovered by two successive flotations of the cell suspension. The infranatant containing the adipocyte precursors was removed with a plastic pipet and further filtered through an 80 μm nylon mesh. The adipocytes remained in the tube after removal of the infranatant. They were gently resuspended in culture medium and counted in a hemocytometer. The filtrate containing the adipocyte precursors was centrifuged twice at 200×g for 5 minutes. Adipocyte precursor pellets were resuspended in 4F medium. The cells were subsequently counted in a hemocytometer and inoculated in 35 mm dishes in 4F medium as described previously (24). Such cultures were used to evaluate the cells' ability to differentiate and to measure their responsiveness to EGF.
For determination of triglyceride content, lipids were extracted from duplicate aliquots of the fat pad cell suspensions obtained as above pads, using the method of Bligh et al. (26). Triglycerides were separated by thin-layer chromatography on silica gel plates using hexane/[…]/formic acid (60:40:1) as a solvent system. Spots containing triglycerides were scraped, and the triglyceride content was determined by the method of Marsh et al. (27). This method consists of a quantitative charring of the triglycerides at 200° C. for 15 min in the presence of concentrated sulfuric acid. Absorbance of the samples at 350 nm was measured in a spectrophotometer using known amounts of triolein as standards.
Ten separate in vivo experiments were performed with neonatal NBR rats. Over the 10 day period, pups injected with saline alone or with EGF were weighed daily. The efficiency of EGF injected was assessed by monitoring the "eyelid response," by determining the postnatal day on which eyelid opening occurs, which is related to the EGF dose (28). Eyelid opening occurred at day 8 in rats injected with EGF at a concentration of 1 μg/g body weight, 24 hrs later in rats treated with 0.6 μg EGF/g body weight, and 48 hrs later in rats injected with 0.3 μg EGF/g body weight.

[2] = tested on: adipocyte precursors isolated from inguinal fat pads; details: earlier study; cited from earlier work
[3] = tested on: adipocyte precursors isolated from inguinal fat pads; test: Inhibition by EGF of differentiation of primary culture adipocyte precursors (G3PDH activity); type: cell-based, rat
Description: as §1
(§2) The defined medium designated 4F consists of a 1:1 mixture of Dulbecco's modified Eagle's medium (DME) and Ham's F12 medium (DME-F12 medium) containing 15 mM HEPES, pH 7.4, 1.2 mg/ml sodium bicarbonate, 50 μg/ml gentamicin, and the following mixture of proteins: fibronectin (2.5 μg/ml), insulin (10 μg/ml), transferrin (10 μg/ml) and fibroblast growth factor (10 ng/ml). The medium was originally developed to support the differentiation of the adipogenic cell line, 1246 (25). When cultivated in this medium, optimal differentiation of adipocyte precursors was achieved within 8 days of culture (24).
Studies from the present inventor's laboratory (10) have shown that the differentiation in vitro of adipocyte precursors cultivated in 4F medium was inhibited in a dose-dependent manner by EGF added to the medium. […]

[4] = tested on: adipocyte precursors isolated from inguinal fat pads; test: Differentiation capacity in 4F medium of adipocyte precursors isolated from EGF-treated rats (G3PDH specific activity); type: cell-based, rat
Description: as §1, §2
It was shown previously (24) that adipocyte precursors freshly isolated from inguinal fat pads of 48 hr-old rats proliferated and differentiated in 4F medium (see above). […]

newborn rats = test: Neonatal EGF treatment of rats, body weight development over 28 days; type: in vivo, rat; details: 0.6 μg/g body weight, from 24 hours after birth, 9 days
Description: FIG. 6 is a graph showing the effect of EGF treatment of newborn rats on development of body weight over 28 days. Rats were injected beginning at 24 hours after birth with EGF (0.6 μg/g body weight) (filled squares) or with vehicle (PBS) (+) for 9 days.

phospholipase A2 (PLA2) = details: EGF 10 ng/ml
Description: Experiments were performed to examine whether stimulation of adipocyte precursors, either primary cultures or the 1246 cell line, activated the enzyme phospholipase A2 (PLA2) which results in the activation of cyclooxygenase and the generation of prostaglandins.

adipocyte precursors = test: Effect of EGF on proliferation of adipocyte precursors in 4F medium (cell count); type: cell-based, rat
Description: FIG. 5 is a graph showing the effect of EGF on proliferation of adipocyte precursors. Controls and EGF-treated animals as in FIG. 4. After 8 days of culture, cells were detached with trypsin and counted on a Coulter counter. Values represent means±standard errors.
For this purpose, adipocyte precursors isolated from inguinal fat pads of control or EGF-injected animals (1 μg/g body weight) were cultivated in 4F medium alone or in the presence of increasing concentrations of EGF. […] The ED50 for EGF on cells from EGF-treated animals was calculated to be 0.5 ng/ml, compared to an ED50 of 0.9 ng/ml for EGF acting on control cells.
Marked stimulation of proliferation (in cells from controls or EGF-treated rats) was observed only at EGF concentrations above 1 ng/ml.

obese yellow mice = test: Neonatal EGF treatment of obese yellow mice, body weight development over 43 days; type: in vivo, mouse; details: 1 μg/g body weight, day 1 to day 10 of life
Description: FIG. 7 is a graph showing the effect of EGF treatment on development of body weight in obese yellow mice over 43 days. Mice were injected beginning at 24 hours after birth with EGF (1 μg/g body weight) (filled diamonds, marked 1Y) or with vehicle (PBS) (+, marked OY) for 9 days. Weights are shown beginning at postnatal day 13

[5] = tested on: organs including inguinal fat pads; details: rat, in vivo
Description: One question raised by the above results is whether the inhibition of adipose tissue development by EGF is due to a direct action of EGF on adipose tissue or by indirect action via another growth factor or hormone. Several observations point to direct action of EGF: EGF inhibits the differentiation of primary culture of adipocyte precursors freshly isolated from inguinal fat pads (10); adipocyte precursors have specific EGF receptors on their surface (10).

EGF receptors = target: T1, EGF receptors (Rattus norvegicus, UniProt G3V6K6); test: 125I-EGF binding to EGF receptors on adipocyte precursors; details: control and treated rats, with or without acid wash
T1 construct: adipocyte precursors have specific EGF receptors on their surface; endogenous in cells; host or cells: primary adipocyte precursors from inguinal fat pads of neonatal NBR rats
Description: The properties of adipocytes from EGF-treated rats, namely, a decreased ability to differentiate and an increased sensitivity to EGF in vitro, could not be explained by occupancy of EGF receptors at the time of cell isolation.

[6] = EGF-treated compared to control animals

Question: Which “effect on EGF inhibition of adipocyte differentiation” value (1246 cells; indomethacin 3 μM with EGF at 2 or 10 ng/ml) does the source give for `COc1ccc2c(c1)c(CC(=O)O)c(C)n2C(=O)c1ccc(Cl)cc1` [indomethacin] here?
Answer: completely reversed

Question: For Epidermal growth factor [EGF], which “eyelid opening at termination, day 10” value ([1]; 0.1 μg EGF/g body weight sc daily) is on record?
Answer: eyelid opening had not yet occurred

Question: And the “eyelid opening, time later than at the 1 μg/g dose” value ([1]; 0.3 μg EGF/g body weight sc daily)?
Answer: 48 h

Question: What about the “eyelid opening, time later than at the 1 μg/g dose” value ([1]; 0.6 μg EGF/g body weight sc daily) of the same molecule?
Answer: 24 h

Question: What about the “fat pad triglyceride content, lower than control” value ([1]; 1 μg EGF/g body weight) of the same molecule?
Answer: 80%

Question: What about the “number of mature adipocytes in the fat pad, lower than in control animals” value ([1]; 1 μg EGF/g body weight) of the same molecule?
Answer: 4 fold

Question: What about the “body weight, less than in control animals” value ([1]; 1 μg EGF/g body weight, 10 days) of the same molecule?
Answer: 40%

Question: And the “inguinal fat pad weight, lower than in controls” value ([1]; 1 μg of EGF/g body weight, 10 days)?
Answer: 50%

Question: What about the “number of adipocyte precursors per fat pad, higher than in control animals” value ([1]; 1 μg/g body weight) of the same molecule?
Answer: 1.8 fold

Question: And the “postnatal day on which eyelid opening occurs” value ([1]; 1 μg/g body weight sc daily)?
Answer: 8 days

Question: And the intestinal weight ([1]; EGF treatment)?
Answer: increased

Question: What about the kidney weight ([1]; EGF treatment) of the same molecule?
Answer: some decrease

Question: And the liver weight ([1]; EGF treatment)?
Answer: unchanged

Question: And the “total number of cells (precursors plus adipocytes) in fat pads, lower than controls” value ([1]; EGF-treated animals)?
Answer: 40%

Question: What about the hair growth [1, 6] of the same molecule?
Answer: delay in hair growth

Question: And the incisor eruption [1, 6]?
Answer: acceleration of incisor eruption

Question: What about the “lowest EGF dose at which a significant delay of adipose tissue development was observed” value ([1]; daily sc injection) of the same molecule?
Answer: 0.3 μg/g body weight

Question: And the “differentiation of primary culture adipocyte precursors from inguinal fat pad of newborn rats” value [2]?
Answer: potent inhibitor

Question: What about the “differentiation (G3PDH activity)” value ([3]; EGF 10 ng/ml, primary cultures) of the same molecule?
Answer: inhibition of differentiation

Question: What about the “ED50 for inhibition of differentiation (G3PDH enzyme activity)” value ([3]; cells from EGF-treated animals (1 μg/g body weight)) of the same molecule?
Answer: 0.5 ng/mL

Question: What about the “ED50 for inhibition of differentiation (G3PDH enzyme activity)” value ([3]; control cells) of the same molecule?
Answer: 0.9 ng/mL

Question: What about the “G3PDH specific activity corresponding to 100% activity (FIG. 4)” value ([4]; cells from EGF-treated rats) of the same molecule?
Answer: 337±53 milliunits/mg protein

Question: And the “G3PDH specific activity, lower than control” value ([4]; cells from animals treated with 1 μg/g, day 8 of culture)?
Answer: 60%

Question: And the G3PDH specific activity ([4]; cells from animals treated with EGF 1 μg/g, 5 separate experiments)?
Answer: 337±53 mU/mg protein

Question: And the “body weight over a 28 day period” value (newborn rats)?
Answer: significant reduction in body weight

Question: What about the PLA2 activity (phospholipase A2 (PLA2)) of the same molecule?
Answer: increase in PLA2 activity

Question: What about the “effect on cell proliferation of the EGF concentration which inhibited differentiation by 50%” value (adipocyte precursors) of the same molecule?
Answer: moderate or no effects

Question: And the “proliferation of adipocyte precursors” value (adipocyte precursors; EGF added to 4F medium, cells from control and EGF-treated rats, 8 days)?
Answer: stimulated proliferation

Question: And the “EGF concentration giving marked stimulation of proliferation” value (adipocyte precursors; cells from controls or EGF-treated rats)?
Answer: above 1 ng/ml

Question: And the “body weight over at least 43 days” value (obese yellow mice)?
Answer: prolonged and profound diminution in body weight

Question: With “^125 I-EGF: radiolabeled EGF used in binding studies” as the molecule, how does the “binding to organs after sc injection” value [5] read?
Answer: specifically bound to several organs including inguinal fat pads

Question: What about the “EGF bound to EGF receptors on adipocyte precursors” value (EGF receptors) of the same molecule?
Answer: about 4 pg EGF bound per 10^5 cells

Question: Which “differentiation of 1246 cells” value (1246 cells; indicated doses (FIG. 11)) does the source give for prostaglandin F2α [PGF2α] here?
Answer: concentration-dependent inhibition

Question: For transforming growth factor.α [TGFα], which “differentiation of primary culture adipocyte precursors from inguinal fat pad of newborn rats” value [2] is on record?
Answer: potent inhibitor
